Data published in patent US9540418B2, “Polypeptide specifically binding to rare earth nanoparticles and use thereof” (University of Science and Technology of China, priority 2012, dated 2017).
Ends that are not written are not given here.

Assays:
[1] = Competitive inhibition of REOB-1 phage binding to Nd2O3 by polypeptides (IC50); conditions: 100 μg Nd2O3, REOB-1 phages at a titer of 108, 2 hr incubation; read-out: IC50 (μM)* of polypeptides competitively inhibiting the binding of REOB-1 phages to Nd2O3 nanoparticles
Procedure: 100 μg Nd2O3 was mixed with the polypeptides, RE-1, AP-1, RE-2, RE-3, RE-4, RE-5, RE-6, RE-7, RE-8, RE-9, RE-10, etc., respectively. To the mixture, REOB-1 phages at a titer of 108 were added. After 2 hr of incubation, the number of REOB-1 phages binding to Nd2O3 was measured. IC50 value indicated the relative activity of various polypeptides competitively inhibiting the binding of REOB-1 phages to Nd2O3 nanoparticles. The polypeptide RE-1 and its analogues had different binding ability to Nd2O3.

[2] = system: HeLa-LC3 cells; assay: RE-1 analogues blocking nanophosphor-induced autophagy (LC3 aggregates and vacuoles); format: cell-based; conditions: 24 hr; for inhibition of GFP-LC3 dot-like aggregation and cytoplasm vacuolation induced by UCN: 100 μg/mL UCN coated or mixed; for rank of ability after coating UCN to inhibit cell autophagy induced by UCN: 100 μg/mL
Procedure: UCN and UCP coated with RE-1 analogues RE-2, RE-3, or RE-5 were prepared as follows: 50 μg or 10 μg RE-1 analogues RE-2, RE-3, or RE-5 was mixed with 100 μg UCN or UCP, respectively, incubated at 37° C. for 2 hr, centrifuged at 12000 rpm, and then washed with water 3 times to remove the excess and unbound peptides. The resultant precipitate was resuspended in 100 μL water.
HeLa-LC3 cells were inoculated into a 96-well cell culture plate at a density of about 1-2×10^4 cells/well, and cultured overnight for further use. At first, the medium was replaced with fresh DMEM medium, and then 100 μg/mL UCN, UCN+RE-1, UCN+RE-2, UCN+RE-3, or UCN+RE-5 was added. An equal volume of PBS was used as blank. A mixture of 100 μg/mL UCN and 10 mg/mL PEG was used as negative control. A mixture of 100 mM trehalose and 50 μg RE-1 was used as positive control. After culturing for 24 hr, a fluorescence microscope was used to observe, image, and count.
HeLa-LC3 cells were inoculated into a 96-well cell culture plate at a density of about 1-2×10^4 cells/well, and cultured overnight for further use. At first, the medium was replaced with fresh DMEM medium, and then 100 μg/mL UCP, UCP+RE-1, UCP+RE-2, UCP+RE-3, or UCP+RE-5 was added. An equal volume of PBS was used as blank. After culturing for 24 hr, a fluorescence microscope was used to observe, image, and count.
The ability to induce cell autophagy was estimated by determining the numbers of LC3 aggregates and vacuoles.

[3] = system: HeLa cells; assay: Effect of RE-1 analogues on cytotoxicity induced by UCN, UCP (MTT, PI staining); format: cell-based; conditions: 1 mg/mL, 24 hr
Procedure: (§1) MTT cell vitality assay is performed as follows: The cells to which samples have been added are cultured for 24 hr, and then 0.5 mg/mL MTT solution is added and cultured for 4 hr. The MTT solution in the well is discharged, and then 200 μL DMSO is added, followed by gently shaking the plate on a shaking table for 10 min. Detection is performed using microplate reader (ELX800, purchased from BIO-TEK) at a wavelength of 570 nm.
(§2) PI staining assay is performed as follows: The cells to which samples have been added are cultured for 24 hr, and then to the culture Hoechst 33342 (10 mM, purchased from Sigma, USA, Catalog #: B2261) and PI (Propidium Iodide) (10 mM, purchased from Beyotime Biotechnology, Catalog #: ST511) are added for 10 min of staining. Then, the cells are detected and photographed under a fluorescence microscope (Olympus IX71, purchased from Olympus). The number of the cells counted by this assay was 500.
(§3) HeLa cells were inoculated into 96-well cell culturing plate at a density of about 1-2×10^4 cells/well, and cultured overnight for further use. At first, the medium was replaced with fresh DMEM medium, and then 1 mg/mL UCN, UCP, UCN+PEG (containing 10 mg PEG), UCN+RE-1, UCP, UCP+RE-1, UCN+RE-2, UCN+RE-3, UCN+RE-5, UCP+RE-2, UCP+RE-3, or UCP+RE-5 were added, respectively. After culturing for 24 hr, MTT cell viability assay and PI staining were performed to detect the mortality of the cells.

[4] = system: LC3 II in HeLa cells; assay: Western blotting of LC3 in HeLa cells; format: cell-based; conditions: 100 μg/mL UCP+AP-1
Procedure: (§4) Western blotting is performed as follows: After an incubation of 24 h, the cells are collected and lysed with lysis buffer (purchased from Beyotime Biotechnology, China). The lysate is boiled in boiling water for 10 min, subjected to 15% SDS-PAGE, and then transferred to nylon membrane (purchased from Amersham Inc.) by a wet transfer. In the Western blotting, Anti-LC3 (Light Chain 3 Protein Antibody, purchased from Novus Inc., Catalog #: NB 100-2220) is used as primary antibody; GAPDH (purchased from Millipore Inc.) is used as internal reference; and Horseradish peroxidase (HRP) conjugated goat anti-rabbit IgG (H+L) (Goat Anti-Rabbit IgG (H+L), HRP Conjugate) (purchased from Promega Inc.) is used as secondary antibody.
HeLa cells were inoculated into a 24-well cell culturing plate at a density of about 3-5×10^4 cells/well, and cultured overnight for further use. At first, the medium was replaced with fresh DMEM medium, and then 100 μg/mL UCN or UCN+RE-1 was added. An equal volume of PBS was used as blank. A mixture of 100 μg/mL UCN and 10 mg/mL PEG was used as negative control. 100 mM trehalose was used as positive control. Then, western blotting assay was performed.
HeLa cells were inoculated into a 24-well cell culturing plate at a density of about 3-5×10^4 cells/well, and cultured overnight for further use. At first, the medium was replaced with fresh DMEM medium, and then 100 μg/mL UCP or UCP+RE-1 was added. An equal volume of PBS was used as blank. A mixture of 100 μg/mL UCP+AP-1 and a mixture of 400 μg/mL TiO2+AP-1 were used as negative control. 400 μg/mL TiO2 was used as positive control. Then, western blotting assay was performed.

[5] = system: LC3 type II in mice liver; assay: Western blotting of LC3 in mice livers after tail vein injection; format: in vivo; conditions: UCP+AP-1, tail vein, 24 hr
Procedure: as §4
(§5) Balb/c mice (purchased from SLAC Laboratory Animal (Shanghai, China), 6 weeks old, and weighed 20 g when used) were bred in a sterile housing, and then 300 μg (dosage: 15 mg/kg) UCN, UCN+PEG (containing 10 mg PEG), UCN+RE-1, UCP, UCP+RE-1, or UCP+AP-1 was injected through tail vein. An equal volume of normal saline was injected as a control. After 24 hr, the livers of the mice were removed and subjected to western blotting assay.

[6] = system: mice liver; assay: Autophagosome formation in mice livers by transmission electron microscope; format: in vivo, Balb/c mice; conditions: RE-1 with UCN, PEG with UCN, AP-1 with UCP
Procedure: as §5
(§6) The mice livers obtained as described in Example 21 were in situ fixed with 2.5% glutaral-dimethyl arsine buffer (pH 7.4) at 4° C. for 1 hr, then fixed with 2% osmium tetroxide at room temperature for 1 hr, and then dehydrated with ethanol gradients. Then, the cell samples were embedded into epoxy resin (EPON812). The embedded cell samples were cut into ultrathin slices, which were stained with uranyl acetate and lead citrate, and observed and imaged under a transmission electron microscope (JEOL-1230, JEOL, Japan).

[7] = system: mice liver; assay: Liver damage in mice livers (HE staining); format: in vivo, Balb/c mice; conditions: UCP+RE-1 or UCP+AP-1, tail vein, 24 hr
Procedure: as §5
as §6, with “in paraffin.” for “into epoxy resin (EPON812).”, “HE (hematoxylin-eosin),” for “uranyl acetate and lead citrate,”, “fluorescence microscope.” for “a transmission electron microscope (JEOL-1230, JEOL, Japan).”

[8] = system: HeLa cells; assay: Adherence of UCN coated with RE-1 or RE-1-RGD to HeLa cells; format: cell-based; conditions: 37° C., 2 hr, versus uncoated
Procedure: HeLa cells were cultured on a coverslip (22 mm×22 mm), which was then placed into a 6-well plate with the cells facing upward or downward, and the coverslip was supported by a sterilized glass cube (2 mm×2 mm×2 mm). Then, 4 mL of DMEM medium containing the rare-earth upconversion nanophosphors coated with RE-1 or RE-1-RGD or without any coating was slowly poured into the 6-well plate, such that the cells were fully immersed in the medium, and the coverslip was just located at the middle of the height of the liquid. The cells were placed into a cell incubator at 37° C. for 2 hr, and then washed with PBS 3 times. The UCNs adhered to the surfaces of the cells were observed under a fluorescence microscope (Olympus IX71, Olympus, Japan) equipped with a 980-nm infrared laser (MDL-980 nm 1 W, Changchun New Industries Optoelectronics Tech. Co., Ltd, China).

[9] = system: HeLa-LC3 cells; assay: RE-1-RGD effect on UCN-induced autophagy (LC3 dot-like aggregates and vacuoles); format: cell-based; conditions: 100 μg/mL RE-1-RGD-coated UCN, 24 hr
Procedure: UCN coated with RE-1-RGD was prepared as follows: 50 μg RE-1-RGD and 100 μg UCN were mixed, incubated at 37° C. for 2 hr, and then centrifuged at 12000 rpm. The resultant precipitate was washed with water for 3 times to remove the excess and unbound RE-1-RGD peptides. Then, the precipitate was resuspended in 100 μL water for further use.
HeLa-LC3 cells were inoculated into a 96-well cell culture plate at a density of about 1-2×10^4 cells/well, and cultured overnight for further use. At first, the medium was replaced with fresh DMEM medium, and then 100 μg/mL UCN, UCN+RE-1, and UCN+RE-1-RGD were added, respectively. An equal volume of PBS was used as blank. After culturing for 24 hr, LC3 dot-like aggregates and vacuoles in the cells were observed and imaged under a fluorescence microscope.

[10] = system: LC3 II in HeLa cells; assay: RE-1-RGD effect on UCN-induced autophagy (western blotting LC3 II); format: cell-based; conditions: 100 μg/mL RE-1-RGD-coated UCN
Procedure: as §4
HeLa cells were inoculated into 24-well cell culture plate at a density of about 3-5×10^4 cells/well, and cultured overnight for further use. At first, the medium was replaced with fresh DMEM medium, and then 100 μg/mL UCN, UCN+PEG (containing 10 mg PEG), UCN+RE-1, and UCN+RE-1-RGD were added, respectively. An equal volume of PBS was used as blank. 100 mM trehalose was used as positive control. Then, western blotting assay was performed.

[11] = system: HeLa cells; assay: RE-1-RGD effect on cytotoxicity induced by UCN (MTT, PI staining); format: cell-based; conditions: 1 mg/mL RE-1-RGD-coated UCN, 24 hr, MTT and PI staining
Procedure: as §1, §2
as §3, with “UCN,” for “UCN, UCP, UCN+PEG (containing 10 mg PEG),”, “and UCN+RE-1-RGD” for “UCP, UCP+RE-1, UCN+RE-2, UCN+RE-3, UCN+RE-5, UCP+RE-2, UCP+RE-3, or UCP+RE-5”

Question: For ACTARSPWACG [RE-10, RE-1 9I→A], which IC50 [1] is on record?
Answer: 71.5 ± 5.1 µM

Question: For ACTARSPAICG [RE-9, RE-1 8W→A], which IC50 [1] is on record?
Answer: 86.7 ± 8.07 µM

Question: Which results are given for “ACWPATRISCG [RE-3, order of 7 middle amino acids of RE-1 disrupted]”?
Answer: IC50 [1]: 64.3 ± 2.33 µM; inhibition of GFP-LC3 dot-like aggregation and cytoplasm vacuolation induced by UCN [2]: exhibited an inhibitory effect; reduction of GFP-LC3 dot-like aggregation induced by UCN ([2]; 100 μg/mL UCN coated): 21%; reduction of cytoplasm vacuolation induced by UCN ([2]; 100 μg/mL UCN coated): 50%; rank of ability after coating UCN to inhibit cell autophagy induced by UCN [2]: RE-1>RE-3>RE-5; inhibitory effect of coating on cytotoxicity induced by UCN and UCP [3]: RE-1>RE-3>RE-5

Question: Which IC50 [1] does the source give for AATARSPWICG [RE-4, RE-1 2C→A] here?
Answer: 270 ± 8.67 µM

Question: What does the source list for “ACNATLPHQCG [AP-1, same terminal amino acids but irrelevant amino acids therebetween, reference compound]”?
Answer: IC50 [1]: > 5000 µM; inhibition of ability of nanophosphor to induce cell autophagy by AP-1 [4]: not for AP-1; inhibition of ability of UCP to induce autophagy in liver [5]: could not inhibit; inhibition of autophagosome formation induced by nanophosphors (UCN, UCP) in liver [6]: did not; effect of coating on liver damage induced by UCP [7]: showed no such effect

Question: Which “number of coated upconversion nanophosphors adhered to the surface of the cells” value [8] does the source give for “CRGDCGGACTARSPWICG [RE-1-RGD, RE-1 and tumor cell-targeting peptide RGD]” here?
Answer: significantly higher

Question: What about the “LC3 dot-like aggregates and vacuoles in cells versus UCN group” value [9] of the same substance?
Answer: significantly increased

Question: And the “LC3 II in the cells” value [10]?
Answer: significantly increased

Question: What about the “cell mortality versus group treated with UCN” value [11] of the same substance?
Answer: significantly higher

Question: Which IC50 [1] does the source give for “ACTARAPWICG [RE-7, RE-1 65→A as printed]” here?
Answer: 83.9 ± 6.65 µM

Question: For ACTARSAWICG [RE-8, RE-1 7P→A], which IC50 [1] is on record?
Answer: 440 ± 8.48 µM

Question: Which IC50 [1] does the source give for ACAARSPWICG [RE-5, RE-1 3T→A] here?
Answer: 689 ± 8.38 µM

Question: What about the “inhibition of GFP-LC3 dot-like aggregation and cytoplasm vacuolation induced by UCN” value [2] of the same substance?
Answer: did not inhibit

Question: And the “rank of ability after coating UCN to inhibit cell autophagy induced by UCN” value [2]?
Answer: RE-1>RE-3>RE-5

Question: And the “inhibitory effect of coating on cytotoxicity induced by UCN and UCP” value [3]?
Answer: RE-1>RE-3>RE-5

Question: Which IC50 [1] does the source give for TARSPWI [RE-2, TARSPWI] here?
Answer: 1307 ± 6.5 µM

Question: What about the “inhibition of GFP-LC3 dot-like aggregation and cytoplasm vacuolation induced by UCN” value [2] of the same substance?
Answer: did not inhibit

Question: And the “rank of ability after coating UCN to inhibit cell autophagy induced by UCN” value [2]?
Answer: substantially no inhibitory effect

Question: And the “inhibitory effect of coating on cytotoxicity induced by UCN and UCP” value [3]?
Answer: nearly showed no inhibitory effect

Question: For ACTAASPWICG [RE-6, RE-1 5R→A], which IC50 [1] is on record?
Answer: 78.4 ± 7.07 µM
